This is an account of results in article PMC9692247 (Pharmaceuticals, 2022).

Some results are limits rather than exact numbers.

One data set has as its target HDAC6 (Homo sapiens, UniProt Q9UBN7). Put plainly: Intracellular target engagement residence time assay (NanoBRET) in HeLa cells. Format: cell-based. Conditions: HeLa cells transiently expressing HDAC6-NanoLuc full-length fusion protein. (In general: In BRET a luciferase serves as donor, and the signal depends on an acceptor being close.)
In data set [1] the target is T1, recombinant zfHDAC6 (HDAC6 CD2) (Danio rerio, UniProt F8W4B7).
T1 construct: HDAC6 from Danio rerio (zebrafish; catalytic domain 2, S440-R798); His-SUMO (N, cleaved yes); made in house; host or cells: E. coli BL21 (DE3) RILP
T1 sequence (F8W4B7 440-798): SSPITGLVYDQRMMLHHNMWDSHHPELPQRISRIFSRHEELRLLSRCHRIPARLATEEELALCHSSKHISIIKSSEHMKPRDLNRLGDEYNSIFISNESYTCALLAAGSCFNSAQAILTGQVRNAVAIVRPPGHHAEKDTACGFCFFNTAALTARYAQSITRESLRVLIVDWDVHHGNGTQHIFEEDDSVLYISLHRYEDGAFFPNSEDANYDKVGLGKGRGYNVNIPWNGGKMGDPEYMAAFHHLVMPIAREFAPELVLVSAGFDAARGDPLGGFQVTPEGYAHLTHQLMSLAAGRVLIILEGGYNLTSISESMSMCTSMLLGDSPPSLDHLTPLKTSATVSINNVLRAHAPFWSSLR
Put plainly: Fluorescence polarization (FP) competition assay with FITC-M344. The settings on record: for IC50: 300 nM HDAC6 CD2, 50 nM FITC-M344, read-out: Fluorescence polarization IC50 against zfHDAC6. Type of data set: binding, Danio rerio (zebrafish). The method, then: The FP assay was conducted in a Greiner Bio-one black 384-well, nonbinding microplate (Cat 781900) as previous described. These studies were performed in FP buffer (20 mM HEPES pH 8.0, 137 mM NaCl, 3 mM KCl, 1 mM TCEP, 5% DMSO). Binding experiments were performed in the presence of 50 nM FITC-M344 synthesized as described by Mazitschek et al. and titrated with 0–3 µM HDAC6. Competition assays were performed by titrating 0–100 µM inhibitor to 300 nM HDAC6 CD2 and preincubating the samples for 10 min prior to addition of 50 nM FITC-M344 in FP buffer. The assay mixture was incubated for an additional 10 min before FP measurement. Polarization measurements were collected using Infinite M1000-Tecan (ex/em = 470 nm/530 nm) and data were plotted and fitted using Prism GraphPad 6 built-in function, log(inhibitor) vs. response—variable slope (four parameters).
Background: Polarisation of emitted light reports the rotation of a fluorescent probe.

Data set [2] can be described thus: In vivo brain PK analysis in male CD-1 mice. The settings on record: IP, 50 mg/kg, n = 3. On the procedure: (§1) In vivo mouse studies were performed at Pharmaron in CD-1 male mice in triplicate. The test compounds were formulated within a 4 mg/mL solution (10% DMA, 65% PEG400, 25% saline). CD-1 mice were administered the test compound (50 mg/kg, I.P) once, and blood samples were obtained from each mouse at 0.25, 0.5, 1, 2, 4, 8, and 24 h post-dose. The mice had free access to food and water, were inspected for clinical signs and were weighted once prior to dosing. The working solutions of 5 μL at different concentrations (2, 4, 10, 20, 100, 200, 1000, 2000 ng/mL) were added to CD-1 mouse plasma (10 μL) to generate calibration standards of 1, 2, 5, 10, 50, 100, 500, and 1000 ng/mL. Four quality control (QC) samples at 2, 5, 50, and 800 ng/mL for plasma were prepared independently of calibration curves. Standards, QC samples, and unknown samples (total volume 15 µL) were added to acetonitrile (200 μL) containing IS (2 ng/mL Verapamil, and 50 ng/mL Dexamethasone) for precipitation of protein. Samples were vortexed and centrifuged (4 °C, 3900 rpm, 15 min), and the supernatant was diluted 3× with ultra-pure water. Diluted supernatant was injected into the LC-MS/MS system for quantitative analysis.

Data set [3] in a line: Plasma stability evaluation. Format: in vitro ADME. Conditions: read-out: T1/2 in plasma.
Data set [4] deals with acetylation of α-tubulin and histone H3 in multiple myeloma (MM.1S) cells. Kind of data set: In cellulo target engagement by Western blotting. Format: cell-based. The settings on record: 6 h treatment, Western blot. The method, then: (§2) Cells (MV4-11 AML, MM.1S multiple myeloma, or YT cells) were incubated with inhibitors prior to washes (2×) with cold phosphate-buffered saline (PBS) and cell lysis with radioimmunoprecipitation assay (RIPA) buffer (20 mM Tris pH 7.4, 150 mM NaCl, 0.5% deoxycholate, 1% Triton X-100, and 0.1% sodium dodecyl sulfate (SDS)). Total protein content was determined through a bicinchoninic acid (BCA) assay (ThermoFisher Scientific, Waltham, MA, USA). The cell lysate proteins were separated via a 4–20% polyacrylamide SDS gel and transferred to a PVDF membrane (Bio-Rad, Hercules, CA, USA). Non-specific binding of the antibody to the membrane was reduced by blocking the membranes with a 5% (w/v) solution of Bovine Serum Albumin powder in TBS-T. This was followed by incubation at 4 °C (overnight) with the following antibodies: acetylated α-tubulin mouse monoclonal (sc-23950, Santa Cruz, Santa Cruz, CA, USA), acetylated Histone H3 (Ac-Lys18, 07-354, Sigma), β-Actin mouse monoclonal (AC-15, sc-69879, Santa Cruz), and […] HSC70 (sc-7298, Santa Cruz). Following overnight incubation, horseradish peroxidase (HRP)-conjugated goat anti-mouse IgG secondary antibody (7076, Cell Signaling) or HRP-linked anti-rabbit IgG secondary antibody (7074, Cell Signaling) was applied to the membrane in a 1:5000 dilution for 1 h. The bands were visualized using clarity Western ECL substrate luminal/enhancer solution and peroxide solution. Western blotting analysis was carried out using Image lab software (Bio-Rad).
Background: In western blotting, separated proteins are transferred to a membrane and probed.

Data set [5] deals with acetylation of α-tubulin and histone H3 in acute myeloid leukemia (MV4-11) cells. Put plainly: In cellulo target engagement by Western blotting. Type of data set: cell-based. The settings on record: 6 h treatment, Western blot. The method, then:
as §2

A short description of data set [6]: In vivo PK study in CD-1 male mice (plasma). More on the design: species or system CD-1 mice. On the procedure:
as §1

Data set [7] deals with DERL-2 cells. Kind of data set: Cytotoxicity assay (Cell Titer-Blue, 72 h). Type of data set: cell-based. Conditions: Homo sapiens, one representative of three experiments. The method, then: (§3) KHYG-1, SNK6, MTA, YT, DERL-2, DERL-7, Mac2a, SU-DHL-1, Myla, Hut78, SeAx, HH, MOTN-1, KOPT-K1, Jurkat, and Loucy cells were plated in 96-well flat-bottom sterile culture plates with low-evaporation lids (Costar #3997). The inhibitors and a vehicle control (0.5% DMSO) were added to the cells following 24 h. After 72 h, Cell Titer-Blue® (Promega #G808A) was added to each well (20 μL), and the fluorescence was measured at 560/590 nm using a Cytation S63 spectrophotometer (BioTek) or on the GloMax® Discover Microplate Reader (Promega, Madison, WI, USA). IC50 values were determined using non-linear regression analysis with GraphPad Prism 6.0 (GraphPad Software Inc., San Diego, CA, USA).

A further data set relates to MOTN-1 cells. Put plainly: Cytotoxicity assay (Cell Titer-Blue, 72 h). Format: cell-based. The settings on record: Homo sapiens, one representative of three experiments. The method, then:
as §3

Another data set deals with Jurkat cells. Put plainly: Cytotoxicity assay (Cell Titer-Blue, 72 h). The settings on record: Homo sapiens, one representative of three experiments. Format: cell-based. The method, then:
as §3

For the next data set, the system named is Myla cells. Put plainly: Cytotoxicity assay (Cell Titer-Blue, 72 h). Type of data set: cell-based. Conditions: Homo sapiens, one representative of three experiments. The method, then:
as §3

In a further data set the test system is HH cells. Kind of data set: Cytotoxicity assay (Cell Titer-Blue, 72 h). Type of data set: cell-based. The settings on record: Homo sapiens, one representative of three experiments. The method, then: as §3
In the next data set the test system is SU-DHL-1 cells. Kind of data set: Cytotoxicity assay (Cell Titer-Blue, 72 h). Type of data set: cell-based. Conditions: Homo sapiens, one representative of three experiments. The method, then:
as §3

A further data set deals with SNK6 cells. Put plainly: Cytotoxicity assay (Cell Titer-Blue, 72 h). Type of data set: cell-based. Conditions: Homo sapiens, one representative of three experiments. The method, then: as §3
For the next data set, the system named is Mac2a cells. Kind of data set: Cytotoxicity assay (Cell Titer-Blue, 72 h). Format: cell-based. Conditions: Homo sapiens, one representative of three experiments. The method, then:
as §3

For the next data set, the system named is MTA cells. Put plainly: Cytotoxicity assay (Cell Titer-Blue, 72 h). Type of data set: cell-based. Conditions: Homo sapiens, one representative of three experiments. On the procedure: as §3
Another data set concerns Hut78 cells. Kind of data set: Cytotoxicity assay (Cell Titer-Blue, 72 h). Type of data set: cell-based. Conditions: Homo sapiens, one representative of three experiments. On the procedure: as §3
Another data set deals with YT cells. Put plainly: Cytotoxicity assay (Cell Titer-Blue, 72 h). Type of data set: cell-based. The settings on record: Homo sapiens, one representative of three experiments. The method, then:
as §3

The next data set relates to DERL-7 cells. Put plainly: Cytotoxicity assay (Cell Titer-Blue, 72 h). The settings on record: Homo sapiens, DERL7, one representative of three experiments. Type of data set: cell-based. The method, then:
as §3

The test system of the next data set is SeAx cells. Put plainly: Cytotoxicity assay (Cell Titer-Blue, 72 h). Type of data set: cell-based. The settings on record: Homo sapiens, one representative of three experiments. On the procedure:
as §3

Another data set relates to KOPT-K1 cells. Put plainly: Cytotoxicity assay (Cell Titer-Blue, 72 h). Format: cell-based. The settings on record: Homo sapiens, KOPTK1, one representative of three experiments. On the procedure: as §3
In a further data set the test system is Loucy cells. Put plainly: Cytotoxicity assay (Cell Titer-Blue, 72 h). Format: cell-based. The settings on record: Homo sapiens, one representative of three experiments. The method, then:
as §3

The test system of a further data set is KHYG-1 cells. Kind of data set: Cytotoxicity assay (Cell Titer-Blue, 72 h). Type of data set: cell-based. The settings on record: Homo sapiens, one representative of three experiments, ANKL to T-ALL panel. On the procedure:
as §3

For data set [8], the system named is DERL-2 cells. Put plainly: FACS apoptosis detection assay (annexin V/PI). Format: cell-based, human. Conditions: DERL-2, 18 h treatment. On the procedure:
DERL-2 cells were seeded, dosed with inhibitors, incubated for 18 h, and washed with ice cold 1× PBS. The resulting cell pellets were resuspended in 1× Binding Buffer (1 × 10^6 cell/mL) from the FITC Annexin V Apoptosis Detection Kit I (BD Pharmingen). Subsequently, the dyes Annexin V (5 μL) and Propidium Iodide (PI, 5 μL) were added to 2.5 × 10^5 cells (250 μL). The suspension was thoroughly mixed and incubated in the dark for 15 min. Following the addition of 250 μL of 1× binding buffer the cells were analyzed by flow cytometry within 1 h using Cytoflex S (Beckman Coulter, Brea, CA, USA).

[9] abbreviates: mouse, plasma, male CD-1 mice, IP, 50 mg/kg, n = 3.

`CC(C)N(Cc1ccc(C(=O)NO)cc1)S(=O)(=O)c1cc(F)c(F)c(F)c1F` [NN-390]: the “Intracellular residence time in HDAC6” value on HDAC6 is 97 min.
A word on the IC50: it is the concentration that gives 50% inhibition. Turning to `O=C(CCCCCCNC(=O)c1cnc(N(c2ccccc2)c2ccccc2Cl)nc1)NO` [Citarinostat, citarinostat], the IC50 in data set [1] was determined as 0.0902 µM. In addition, in data set [1] (FP IC50 vs NN-429), the “Binding affinity lower than NN-429 (FP)” value was found to be 3 fold.
The term AUC(0-inf) denotes the area under the concentration-time curve extrapolated to infinity. A lower AUC(0-inf) goes with less exposure. In general, AUC(0-t) refers to exposure summed from dosing to a finite time, without extrapolation to infinity. The Cmax is the maximum level reached in the sampled fluid or tissue. Regarding `CC(C)N(Cc1ccc(C(=O)NO)cc1F)S(=O)(=O)c1cc(F)c(F)c(F)c1F` [NN-429], in [2], the “Levels in the brain” value is on record as “no observable levels”. Moreover, the half-life was 1.55 h in data set [3] and 3.53 h in [6] (setting [9]). Further, the IC50 was 0.0288 µM in data set [1]; 2.32 µM with DERL-2 cells [7]; 2.75 µM with MOTN-1 cells; 5.46 µM in the data set with Jurkat cells; over 50 µM with Myla cells; 2.95 µM in the data set with HH cells. Also, the IC50 came to 4.72 µM in the data set with SU-DHL-1 cells; 12 µM with SNK6 cells; 15.1 µM with Mac2a cells; 0.72 µM in the data set on MTA cells; 16.7 µM in the data set on Hut78 cells; 1.29 µM in the data set with YT cells. Also, the IC50 in the data set with DERL-7 cells was determined as 2.21 µM; with SeAx cells, 12.4 µM; in the data set on KOPT-K1 cells, 6.16 µM; in the data set on Loucy cells, 3.6 µM; in the data set on KHYG-1 cells, 7.25 µM. Moreover, the “Concentration with visible off-target interaction (histone H3 acetylation)” value in [4] is 5 µM. Also, the “Lowest concentration with dose-dependent increase in acetylation of α-tubulin” value in data set [4] is given as 0.1 µM. In addition, the “Target engagement (α-tubulin vs histone H3 acetylation)” value in data set [5] is “strong target engagement with minimal acetylation of off-target histone H3”. Besides, the “in vivo t1/2 longer than that of KT-531” value in data set [6] (CD-1 mice, KT-531 at a lower dose) is recorded as over 3.5 fold. In addition, the “in vivo t1/2 longer than that of NN-390” value in data set [6] (CD-1 mice, NN-390 at a lower dose) is recorded as ~ 1.8 fold. Besides, the AUC(0-inf) in data set [6] (setting [9]) turned out to be 9920 ng·h/mL. This molecule also had an AUC(0-t) in data set [6] (setting [9]) of 9860 ng·h/mL. The molecule also gave a Cmax in [6] (setting [9]) of 3190 ng/mL. Further, the “Cells undergoing early-stage apoptosis (annexin V+/PI−)” value was determined as 15% in the data set on DERL-2 cells [8] (0.1 μM) and 56% in the data set on DERL-2 cells [8] (5 μM).
